Laboratory results: the NIST ThermoML archive (doi:10.1021/je800345j)
± gives the expanded uncertainty stated by the source.

Columns and labels:
[1] = refractive index (Na D-line) (dimensionless); conditions: 293.15 K; 101.33 kPa; Liquid; Standard Abbe refractometry
[2] = 298.15 K; 101.33 kPa; Liquid

C=C(C)OC(C)=O [1-methylvinyl ethanoate]
refractive index [1]: 1.4033 ± 0.0004 | mass density [2]: 927.8 ± 0.3 kg/m3

CC(=O)CC(C)=O [2,4-pentanedione]
refractive index [1]: 1.4491 ± 0.0004 | mass density [2]: 971.9 ± 0.3 kg/m3

CC(=O)O [acetic acid]
refractive index [1]: 1.372 ± 0.0004 | mass density [2]: 1047.4 ± 0.3 kg/m3
